Where two headings read alike, the source gives them in different places.
Test system: NL-RLuc virus
Experiment: Inhibition of HIV replication (NL-RLuc virus, luciferase readout in MT-2 cells)
Type: cell-based
Conditions: Human immunodeficiency virus 1, MT2, 120 h
From the text: Inhibition of HIV Replication:
A recombinant NL-RLuc proviral clone was constructed in which a section of the nef gene from NL4-3 was replaced with the Renilla Luciferase gene. This virus is fully infectious and can undergo multiple cycles of replication in cell culture. In addition, the luciferous reporter provides a simple and easy method for quantitating the extent of virus growth and consequently, the antiviral activity of test compounds. The plasmid pNLRLuc contains the proviral NL-Rluc DNA cloned into pUC18 at the PvuII site. The NL-RLuc virus was prepared by transfection of 293T cells with the plasmid pNLRLuc. Transfections were performed using the LipofectAMINE PLUS kit from Invitrogen (Carlsbad, Calif.) according to the manufacturer and the virus generated was titered in MT-2 cells. For susceptibility analyses, the titrated virus was used to infect MT-2 cells in the presence of compound, and after 5 days of incubation, cells were processed and quantitated for virus growth by the amount of expressed luciferase. Assay media was RPMI 1640 supplemented with 10% heat inactivated fetal bovine serum (FBS), 100 units/ml penicillin G/100 units/ml streptomycin, 10 mM HEPES buffer pH 7.55 and 2 mM L-glutamine. The results from at least 2 experiments were used to calculate the EC50 values. Luciferase was quantitated using the Dual Luciferase kit from Promega (Madison, Wis.). Susceptibility of viruses to compounds was determined by incubation in the presence of serial dilutions of the compound. The 50% effective concentration (EC50) was calculated by using the exponential form of the median effect equation where (Fa)=1/[1+(ED50/drug conc.)^m] (Johnson V A, Byington R T. Infectivity Assay. In Techniques in HIV Research. ed. Aldovini A, Walker BD. 71-76. New York: Stockton Press. 1990). Activity equal to A refers to a compound having an EC50<100 nM, while B and C denote compounds having an EC50 between 100 nM and 1 uM (B) or >1 uM (C).

Cc1nc(C)c([C@H](OC(C)(C)C)C(=O)O)c(-c2cc(F)c3c(c2C)CCCO3)c1-c1cc(F)c2c(c1C)CCCO2 [Example 1, (2S)-2-(4,5-Bis(8-fluoro-5-methylchroman-6-yl)-2,6-dimethylpyridin-3-yl)-2-(tert-butoxy)acetic Acid]
EC50 (read-out: Activity): > 1 µM
EC50 (read-out: EC50 μM): 1.74 µM

COc1ccc(COc2ccc(-c3c(C)nc(C)c([C@H](OC(C)(C)C)C(=O)O)c3-c3ccc(Cl)cc3)cc2)cc1 [Example 2, (S)-2-(tert-Butoxy)-2-(4-(4-chlorophenyl)-5-(4-((4-methoxybenzyl)oxy)phenyl)-2,6-dimethylpyridin-3-yl)acetic Acid]
EC50 (read-out: Activity): < 0.1 µM
EC50 (read-out: EC50 μM): 0.073 µM

COc1ccc(COc2ccc(-c3c(C)nc(C)c([C@H](OC(C)(C)C)C(=O)O)c3-c3ccc(C)cc3)cc2)cc1 [Example 3, (S)-2-(tert-Butoxy)-2-(5-(4-((4-methoxybenzyl)oxy)phenyl)-2,6-dimethyl-4-(p-tolyl)pyridin-3-yl)acetic Acid]
EC50 (read-out: Activity): 0.1 to 1 µM
EC50 (read-out: EC50 μM): 0.196 µM

COc1ccc(COc2ccc(-c3c(C)nc(C)c([C@H](OC(C)(C)C)C(=O)O)c3-c3ccc(OCc4ccc(OC)cc4)cc3)cc2)cc1 [Example 4, (S)-2-(4,5-Bis(4-((4-methoxybenzyl)oxy)phenyl)-2,6-dimethylpyridin-3-yl)-2-(tert-butoxy)acetic Acid]
EC50 (read-out: Activity): 0.1 to 1 µM

Cc1ccc(-c2c(-c3ccc(OCc4ccc(F)cc4)cc3)c(C)nc(C)c2[C@H](OC(C)(C)C)C(=O)O)cc1 [Example 5, (S)-2-(tert-Butoxy)-2-(5-(4-((4-fluorobenzyl)oxy)phenyl)-2,6-dimethyl-4-(p-tolyl)pyridin-3-yl)acetic Acid]
EC50 (read-out: Activity): 0.1 to 1 µM

Cc1nc(C)c([C@H](OC(C)(C)C)C(=O)O)c(-c2cc(F)c3c(c2C)CCCO3)c1-c1ccc(OCCc2ccc(F)cc2)cc1 [Example 6, (2S)-2-(tert-Butoxy)-2-(4-(8-fluoro-5-methylchroman-6-yl)-5-(4-(4-fluorophenethoxy)phenyl)-2,6-dimethylpyridin-3-yl)acetic Acid]
EC50 (read-out: Activity): < 0.1 µM

CCOc1ccc(-c2c(C)nc(C)c([C@H](OC(C)(C)C)C(=O)O)c2-c2cc(F)c3c(c2C)CCCO3)cc1 [Example 7, (2S)-2-(tert-Butoxy)-2-(5-(4-ethoxyphenyl)-4-(8-fluoro-5-methylchroman-6-yl)-2,6-dimethylpyridin-3-yl)acetic Acid]
EC50 (read-out: Activity): 0.1 to 1 µM
EC50 (read-out: EC50 μM): 0.545 µM

Cc1nc(C)c([C@H](OC(C)(C)C)C(=O)O)c(-c2ccc(OCCc3ccc(F)cc3)cc2)c1-c1ccc(OCCc2ccc(F)cc2)cc1 [Example 8, (S)-2-(4,5-Bis(4-(4-fluorophenethoxy)phenyl)-2,6-dimethylpyridin-3-yl)-2-(tert-butoxy)acetic Acid]
EC50 (read-out: Activity): 0.1 to 1 µM

Cc1nc(C)c([C@H](OC(C)(C)C)C(=O)O)c(-c2ccc3c(c2)CCCO3)c1-c1ccc(OCCc2ccc(F)cc2)cc1 [Example 9, (S)-2-(tert-Butoxy)-2-(4-(chroman-6-yl)-5-(4-(4-fluorophenethoxy)phenyl)-2,6-dimethylpyridin-3-yl)acetic Acid]
EC50 (read-out: Activity): < 0.1 µM

Cc1nc(CN(C)C)c(-c2ccc(OCCc3ccc(F)cc3)cc2)c(-c2ccc3c(c2)CCCO3)c1[C@H](OC(C)(C)C)C(=O)O [Example 10, (S)-2-(tert-Butoxy)-2-(4-(chroman-6-yl)-6-((dimethylamino)methyl)-5-(4-(4-fluorophenethoxy)phenyl)-2-methylpyridin-3-yl)acetic Acid]
EC50 (read-out: Activity): < 0.1 µM

Cc1nc(CNCC2CCOCC2)c(-c2ccc(OCCc3ccc(F)cc3)cc2)c(-c2ccc3c(c2)CCCO3)c1[C@H](OC(C)(C)C)C(=O)O [Example 11, (S)-2-(tert-Butoxy)-2-(4-(chroman-6-yl)-5-(4-(4-fluorophenethoxy)phenyl)-2-methyl-6-((((tetrahydro-2H-pyran-4-yl)methyl)amino)methyl)pyridin-3-yl)acetic Acid]
EC50 (read-out: Activity): < 0.1 µM

COCCNCc1nc(C)c([C@H](OC(C)(C)C)C(=O)O)c(-c2ccc3c(c2)CCCO3)c1-c1ccc(OCCc2ccc(F)cc2)cc1 [Example 12, (S)-2-(tert-Butoxy)-2-(4-(chroman-6-yl)-5-(4-(4-fluorophenethoxy)phenyl)-6-(((2-methoxyethyl)amino)methyl)-2-methylpyridin-3-yl)acetic Acid]
EC50 (read-out: Activity): < 0.1 µM
EC50 (read-out: EC50 μM): 0.007 µM

Cc1nc(CN(C)CC2CCOCC2)c(-c2ccc(OCCc3ccc(F)cc3)cc2)c(-c2ccc3c(c2)CCCO3)c1[C@H](OC(C)(C)C)C(=O)O [Example 13, (S)-2-(tert-Butoxy)-2-(4-(chroman-6-yl)-5-(4-(4-fluorophenethoxy)phenyl)-2-methyl-6-((methyl((tetrahydro-2H-pyran-4-yl)methyl)amino)methyl)pyridin-3-yl)acetic Acid]
EC50 (read-out: Activity): < 0.1 µM

Cc1nc(CO)c(-c2ccc(OCCc3ccc(F)cc3)cc2)c(-c2ccc3c(c2)CCCO3)c1[C@H](OC(C)(C)C)C(=O)O [Example 14, (S)-2-(tert-Butoxy)-2-(4-(chroman-6-yl)-5-(4-(4-fluorophenethoxy)phenyl)-6-(hydroxymethyl)-2-methylpyridin-3-yl)acetic Acid]
EC50 (read-out: Activity): < 0.1 µM

Cc1nc(COC2CCOCC2)c(-c2ccc(OCCc3ccc(F)cc3)cc2)c(-c2ccc3c(c2)CCCO3)c1[C@H](OC(C)(C)C)C(=O)O [Example 15, (S)-2-(tert-Butoxy)-2-(4-(chroman-6-yl)-5-(4-(4-fluorophenethoxy)phenyl)-2-methyl-6-(((tetrahydro-2H-pyran-4-yl)oxy)methyl)pyridin-3-yl)acetic Acid]
EC50 (read-out: Activity): < 0.1 µM

Cc1nc(COCC2COC2)c(-c2ccc(OCCc3ccc(F)cc3)cc2)c(-c2ccc3c(c2)CCCO3)c1[C@H](OC(C)(C)C)C(=O)O [Example 16, (S)-2-(tert-Butoxy)-2-(4-(chroman-6-yl)-5-(4-(4-fluorophenethoxy)phenyl)-2-methyl-6-((oxetan-3-ylmethoxy)methyl)pyridin-3-yl)acetic Acid]
EC50 (read-out: Activity): < 0.1 µM

CCOCCOCc1nc(C)c([C@H](OC(C)(C)C)C(=O)O)c(-c2ccc3c(c2)CCCO3)c1-c1ccc(OCCc2ccc(F)cc2)cc1 [Example 17, (S)-2-(tert-Butoxy)-2-(4-(chroman-6-yl)-6-((2-ethoxyethoxy)methyl)-5-(4-(4-fluorophenethoxy)phenyl)-2-methylpyridin-3-yl)acetic Acid]
EC50 (read-out: Activity): < 0.1 µM

CCOCCOCCOCc1nc(C)c([C@H](OC(C)(C)C)C(=O)O)c(-c2ccc3c(c2)CCCO3)c1-c1ccc(OCCc2ccc(F)cc2)cc1 [Example 18, (S)-2-(tert-Butoxy)-2-(4-(chroman-6-yl)-6-((2-(2-ethoxyethoxy)ethoxy)methyl)-5-(4-(4-fluorophenethoxy)phenyl)-2-methylpyridin-3-yl)acetic Acid]
EC50 (read-out: Activity): < 0.1 µM

Cc1nc(C)c([C@H](OC(C)(C)C)C(=O)O)c(-c2ccc3c(c2)CCCO3)c1-c1ccc2c(c1)CCN(C(=O)OCc1ccccc1)C2 [Example 19, (S)-2-(5-(2-((Benzyloxy)carbonyl)-1,2,3,4-tetrahydroisoquinolin-6-yl)-4-(chroman-6-yl)-2,6-dimethylpyridin-3-yl)-2-(tert-butoxy)acetic Acid]
EC50 (read-out: Activity): < 0.1 µM
EC50 (read-out: EC50 μM): 0.069 µM

Cc1nc(C)c([C@H](OC(C)(C)C)C(=O)O)c(-c2ccc3c(c2)CCCO3)c1-c1ccc2c(c1)CCN(Cc1ccc(F)cc1)C2 [Example 20, (S)-2-(tert-Butoxy)-2-(4-(chroman-6-yl)-5-(2-(4-fluorobenzyl)-1,2,3,4-tetrahydroisoquinolin-6-yl)-2,6-dimethylpyridin-3-yl)acetic Acid]
EC50 (read-out: Activity): < 0.1 µM

Reference: patent US10106504B2, “Pyridin-3-yl acetic acid derivatives as inhibitors of human immunodeficiency virus replication” (priority 2015, dated 2018)
